Data from US12686652B2, “Methods of increasing irrigation water and fertilizer delivery to soil using formic acid and formate salts, making a formate salt from carbon dioxide, and generating a carbon credit” (Deerpoint Group, Inc., priority 2023, dated 2026).
“And” between values parts separate entries of the source, which are not always exact repeats. Equal values may be shown once. Read-outs that look alike come from different tables or passages of the source.

Legend:
[1] = first pass
Excerpt: The irrigation water at the second farm was from a different source than the first farm.

[2] = first farm soil, duplicate columns A and B
[3] = ICP and flow injection (FIA) analyses of solutions passed through soil columns, second farm; details: single soil sample
Excerpt: FIA was used to determine the content of the listed anion (e.g., NO3, Cl, PO4, etc.). Results are presented from a single soil sample.

[4] = for Drainage Rate: Time (50 g), percentage relative to irrigation water / Drainage Rate: liquid eluted at 60 mins, percentage relative to irrigation water / Drainage Rate: liquid eluted at 120 mins, percentage relative to irrigation water / Liquid Eluted after 60 min / Liquid Eluted after 120 min / Time (50 g of liquid, in min) / More liquid eluted by mass than the irrigation water: first farm soil; for Liquid Eluted after 60 min / Liquid Eluted after 120 min / Time (50 g of liquid, in min): Ca formate 22 ppm by moles, HCO2H 0.33% by weight, average of two columns
Excerpt: The objective was to investigate the behavior of different irrigation water treatments and determine the relative amounts of water that passed through the soil columns. The column retention times reflect the rate at which the liquid passes through the soil. Understanding these retention times provides insights about the transport and movement of irrigation water (and any fertilizers dissolved therein) through the soil, which has implications for the volume of water passing into and through the root zone, nutrient availability to crops, leaching of contaminants, and overall soil health.
The data in Table 1 is for the average of the two soil samples.

[5] = for Solubility as percentage of the solubility of potassium formate in water: 68-86° F. (20-30° C.); for Solubility (g K2O/100 g H2O): water
Excerpt: The table below lists the solubilities of various potassium fertilizers in water (as K2O) on a weight basis:

[6] = 1st pass, Alternating = formic acid pass
[7] = 2nd pass, Alternating = calcium formate pass
[8] = 3rd pass, Alternating = formic acid pass
[9] = 4th pass, Alternating = calcium formate pass
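For Mn in solution passed through soil column (ICP) in this document: eluate from PVC columns holding 100 g of dry ground farm soil, analysed by ICP-OES for element content after the solution had drained through, irrigation water measured as received for reference.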

## O=CO [HCO2H, formic acid]
[1]; dry soil, second farm (FIG. 3)
  Liquid retained by the soil samples on average: 41 to 42 mL
  Time of first appearance of liquid from the columns on average: < 20 min
[1]; second farm, from 20-30 minutes up to 240 minutes
  Amount of liquid passed through the columns compared with irrigation water at the same lengths of time: more than three times as much
[2]; 1st pass
  B in solution passed through soil column (ICP): 4.34 ppm and 4.25 ppm
  Ca in solution passed through soil column (ICP): 268.8 ppm and 261.2 ppm
  K in solution passed through soil column (ICP): 19.52 ppm and 18.52 ppm
  Mg in solution passed through soil column (ICP): 107.6 ppm and 103.1 ppm
  Mn in solution passed through soil column (ICP): 4.40 ppm and 4.25 ppm
  Na in solution passed through soil column (ICP): 111.2 ppm and 109.8 ppm
  P in solution passed through soil column (ICP): 1.06 ppm and 0.55 ppm
  S in solution passed through soil column (ICP): 83.5 ppm and 74.5 ppm
  Si in solution passed through soil column (ICP): 31.3 ppm and 30.9 ppm
[2]; 2nd pass
  B in solution passed through soil column (ICP): 2.42 ppm and 2.41 ppm
  Ca in solution passed through soil column (ICP): 173.7 ppm and 205.0 ppm
  K in solution passed through soil column (ICP): 15.36 ppm and 17.82 ppm
  Mg in solution passed through soil column (ICP): 69.7 ppm and 79.2 ppm
  Mn in solution passed through soil column (ICP): 3.32 ppm and 3.98 ppm
  Na in solution passed through soil column (ICP): 53.9 ppm and 49.3 ppm
  P in solution passed through soil column (ICP): 1.01 ppm and 0.73 ppm
  S in solution passed through soil column (ICP): 22.8 ppm and 22.1 ppm
  Si in solution passed through soil column (ICP): 34.1 ppm and 40.9 ppm
[2]; 3rd pass
  B in solution passed through soil column (ICP): 2.09 ppm and 1.82 ppm
  Ca in solution passed through soil column (ICP): 167.8 ppm and 176.4 ppm
  K in solution passed through soil column (ICP): 14.81 ppm and 16.46 ppm
  Mg in solution passed through soil column (ICP): 66.6 ppm and 67.2 ppm
  Mn in solution passed through soil column (ICP): 5.00 ppm and 5.23 ppm
  Na in solution passed through soil column (ICP): 36.5 ppm and 31.2 ppm
  P in solution passed through soil column (ICP): 1.09 ppm and 0.90 ppm
  S in solution passed through soil column (ICP): 13.4 ppm and 11.5 ppm
  Si in solution passed through soil column (ICP): 46.9 ppm and 49.9 ppm
[2]; 4th pass
  B in solution passed through soil column (ICP): 0.79 ppm and 0.73 ppm
  Ca in solution passed through soil column (ICP): 130.3 ppm and 140.7 ppm
  K in solution passed through soil column (ICP): 13.34 ppm and 15.64 ppm
  Mg in solution passed through soil column (ICP): 50.6 ppm and 52.5 ppm
  Mn in solution passed through soil column (ICP): 4.46 ppm and 4.84 ppm
  Na in solution passed through soil column (ICP): 16.6 ppm and 16.4 ppm
  P in solution passed through soil column (ICP): 1.33 ppm and 1.63 ppm
  S in solution passed through soil column (ICP): 3.7 ppm and 3.6 ppm
  Si in solution passed through soil column (ICP): 34.1 ppm and 35.3 ppm
[3]; [6]
  B in solution passed through soil column (ICP): 0.6 ppm
  Ca in solution passed through soil column (ICP): 260.7 ppm
  Cl^− in solution passed through soil column (FIA): 304.0 ppm
  K in solution passed through soil column (ICP): 9.7 ppm
  Mg in solution passed through soil column (ICP): 69.3 ppm
  NO3^− in solution passed through soil column (FIA): 0.0 ppm
  Na in solution passed through soil column (ICP): 345.5 ppm
  P in solution passed through soil column (ICP): 0.7 ppm
  S in solution passed through soil column (ICP): 43.8 ppm
  Si in solution passed through soil column (ICP): 31.8 ppm
[3]; [7]
  B in solution passed through soil column (ICP): 0.5 ppm
  Ca in solution passed through soil column (ICP): 312.7 ppm
  Cl^− in solution passed through soil column (FIA): 102.8 ppm
  K in solution passed through soil column (ICP): 9.0 ppm
  Mg in solution passed through soil column (ICP): 81.3 ppm
  NO3^− in solution passed through soil column (FIA): 0.0 ppm
  Na in solution passed through soil column (ICP): 175.2 ppm
  P in solution passed through soil column (ICP): 1.9 ppm
  S in solution passed through soil column (ICP): 11.4 ppm
  Si in solution passed through soil column (ICP): 43.1 ppm
[3]; [8]
  B in solution passed through soil column (ICP): 0.4 ppm
  Ca in solution passed through soil column (ICP): 337.4 ppm
  Cl^− in solution passed through soil column (FIA): 91.7 ppm
  K in solution passed through soil column (ICP): 9.9 ppm
  Mg in solution passed through soil column (ICP): 84.0 ppm
  NO3^− in solution passed through soil column (FIA): 0.0 ppm
  Na in solution passed through soil column (ICP): 79.9 ppm
  P in solution passed through soil column (ICP): 5.8 ppm
  S in solution passed through soil column (ICP): 8.0 ppm
  Si in solution passed through soil column (ICP): 51.9 ppm
[3]; [9]
  B in solution passed through soil column (ICP): 0.3 ppm
  Ca in solution passed through soil column (ICP): 286.6 ppm
  Cl^− in solution passed through soil column (FIA): 92.9 ppm
  K in solution passed through soil column (ICP): 10.6 ppm
  Mg in solution passed through soil column (ICP): 65.5 ppm
  NO3^− in solution passed through soil column (FIA): 0.0 ppm
  Na in solution passed through soil column (ICP): 66.1 ppm
  P in solution passed through soil column (ICP): 6.4 ppm
  S in solution passed through soil column (ICP): 8.3 ppm
  Si in solution passed through soil column (ICP): 65.2 ppm
[4]; 1st pass
  Drainage Rate: Time (50 g), percentage relative to irrigation water: 50.0%
  Drainage Rate: liquid eluted at 60 mins, percentage relative to irrigation water: 214%
  Drainage Rate: liquid eluted at 120 mins, percentage relative to irrigation water: 168%
  Liquid Eluted after 60 min: 34.1 g
  Liquid Eluted after 120 min: 59.7 g
  Time (50 g of liquid, in min): 90 min
[4]; 2nd pass
  Drainage Rate: Time (50 g), percentage relative to irrigation water: 50.0%
  Drainage Rate: liquid eluted at 60 mins, percentage relative to irrigation water: 206%
  Drainage Rate: liquid eluted at 120 mins, percentage relative to irrigation water: 198%
  Liquid Eluted after 60 min: 43.9 g
  Liquid Eluted after 120 min: 78.9 g
  Time (50 g of liquid, in min): 90 min
[4]; 3rd pass
  Drainage Rate: Time (50 g), percentage relative to irrigation water: 50.0%
  Drainage Rate: liquid eluted at 60 mins, percentage relative to irrigation water: 189%
  Drainage Rate: liquid eluted at 120 mins, percentage relative to irrigation water: 189%
  Liquid Eluted after 60 min: 36.0 g
  Liquid Eluted after 120 min: 68.3 g
  Time (50 g of liquid, in min): 90 min
[4]; 4th pass
  Drainage Rate: Time (50 g), percentage relative to irrigation water: 50.0%
  Drainage Rate: liquid eluted at 60 mins, percentage relative to irrigation water: 207%
  Drainage Rate: liquid eluted at 120 mins, percentage relative to irrigation water: 183%
  Liquid Eluted after 60 min: 40.5 g
  Liquid Eluted after 120 min: 69.5 g
  Time (50 g of liquid, in min): 90 min
[4]; first pass, dry soil, first farm, 100 ml added (FIG. 1)
  Liquid retained by the soil samples on average: about 36 ml
[4]; first pass
  More liquid eluted by mass than the irrigation water: 170-210%
[4]; fourth pass
  More liquid eluted by mass than the irrigation water: 180-210%
[4]; second pass
  More liquid eluted by mass than the irrigation water: 200-210%
[4]; third pass
  More liquid eluted by mass than the irrigation water: ~ 190%

## O=S([O-])([O-])=S.[K+].[K+] [K2SSO3, potassium thiosulfate]
[5]
  Solubility as percentage of the solubility of potassium formate in water: about 40%
[5]; 32 ° F.
  Solubility (g K2O/100 g H2O): 48 g K2O/100 g H2O
[5]; 68 ° F.
  Solubility (g K2O/100 g H2O): 77 g K2O/100 g H2O
[5]; 86 ° F.
  Solubility (g K2O/100 g H2O): 87 g K2O/100 g H2O

## [Cl-].[K+] [KCl, potassium chloride]
[5]
  Solubility as percentage of the solubility of potassium formate in water: about 12%
[5]; 32 ° F.
  Solubility (g K2O/100 g H2O): 18 g K2O/100 g H2O
[5]; 68 ° F.
  Solubility (g K2O/100 g H2O): 22 g K2O/100 g H2O
[5]; 86 ° F.
  Solubility (g K2O/100 g H2O): 24 g K2O/100 g H2O
